Common to all, as to type: in vivo
A short description of data set [1]: Organ weight (liver, heart), Example 1. The following applies: mice, 28 days. Here is the method: (§1) Twenty-four 8-week-old male Swiss Albino mice were housed in an animal room at a constant temperature (22±3° C.) and humidity (30%-70%) under a 12:12 h light-dark cycle with standard laboratory diet (Purina 5L79, Rat and Mouse 18% protein; PMI Nutrition International, Brentwood, MO, USA). Distilled water was provided ad libitum. All animal experiments were reviewed and approved by the Institutional Animal Ethical Committee (IAEC) of Radiant Research Services Pvt. Ltd (Bangalore, India). All research was conducted in accordance with the guidelines of the committee for the purpose of control and supervision of experiments on animals.
After one week of acclimation, the animals were randomly divided by body weight into three groups (n=8 per group in each test) for oral treatment once a day, at approximately same time each day (±1 hour), for 28 consecutive days: (1) vehicle control or (2) 1-methylxanthine or (3) 1-methylxanthine plus paraxanthine. The dose administered to the mice was calculated using US Food and Drug Administration for human equivalence doses (HED), assuming a human weight of 60 kg. […] Food intake was monitored daily while water intake was ad libitum. BW was recorded weekly. […]

In another data set the test system is male Swiss Albino mice. Nature of the data set: Passive shock avoidance test, scopolamine-induced amnesia. Here is the method: Behavioral studies were conducted in mice to examine the learning and memory ability by using Cook's pole and Passive shock avoidance test.
as §1
After one week of acclimation, the animals were randomly divided by body weight into three groups (n=8 per group in each test) for oral treatment once a day, at approximately same time each day (±1 hour), for 7 consecutive days: (1) vehicle control or (2) 1-methylxanthine or (3) 1-methylxanthine plus paraxanthine. The dose administered to the mice was calculated using US Food and Drug Administration for human equivalence doses (HED), assuming a human weight of 60 kg. […] Food intake was monitored daily while water intake was ad libitum. […]

The subject of data set [2] is Brain-derived neurotrophic factor (BDNF). Nature of the data set: BDNF level in young and old rats. Here is the method: as §1, with “young (6-8 Week) and twenty-four old (14-16 Months)” for “8-week-old male”, “Wistar rats” for “mice”
(§2) After one week of acclimation, the animals were randomly divided by body weight and age into six groups (n=8 per group in each test) for oral treatment once a day, at approximately same time each day (±1 hour), for 10 consecutive days: (1) vehicle control or (2) 1-methylxanthine or (3) 1-methylxanthine plus paraxanthine. The dose administered to the rat was calculated using US Food and Drug Administration for human equivalence doses (HED), assuming a human weight of 60 kg. […] Food intake was monitored daily while water intake was ad libitum. […] Body weight was recorded weekly. […]

The nature of data set [3]: Brain weight in young and aged rats. The procedure: as §1, with “young (6-8 Week) and twenty-four old (14-16 Months)” for “8-week-old male”, “Wistar rats” for “mice”
as §2

In data set [1], `Cn1c(=O)[nH]c2nc[nH]c2c1=O` [1-methylxanthine, 1-Methyl-3H-purine-2,6-dione] came in with a Heart weight of 189.13 ± 0.64 mg. This compound yielded a Liver weight in data set [1] of 1847.25 ± 47.92 mg. In addition, the “Transfer latency, passive shock avoidance test” value in the data set with male Swiss Albino mice (mice, oral 7 days, scopolamine) was 24.25 ± 2.60 s. The “Transfer latency faster than control” value with male Swiss Albino mice (mouse, in vivo) is 9.3%. Also, the BDNF levels in data set [2] (old rats) stood at 793.81 ± 33.85 pg/mL; in data set [2] (young rats), 869.04 ± 32.79 pg/mL. The Brain weight in data set [3] (aged animals) is 2 ± 0.074 g; in data set [3] (young animals), 1.73 ± 0.027 g.

The values are drawn from patent US12390470B2, “1-methylxanthine-based bioactive composition and method of use thereof” (Ingenious Ingredients, LP, priority 2021, dated 2025).
